Experimental data from article PMC10762035, “Molecular basis of human trace amine-associated receptor 1 activation” (Nature Communications, 2024).
Where a chain is given by its changes, count along the chain named. Several values for one entry are separate records, joined by “and”; a condition that tells them apart may be missing. Equal entries are not always repeated.

Columns and labels:
hTA1 V184P = molecular target: T1, hTA1 V184P (Homo sapiens, UniProt Q96RJ0, V184P); experiment: GloSensor cAMP accumulation assay, V184P mutant; type: cell-based; settings: for cAMP accumulation response, single replicate values (source data, Supplementary Figure 5): hTA1 V184P (N=2), log[Compound]
T1 construct: expressed in transfected cells; host or cells: HEK293T
T1 sequence (Q96RJ0 1-339 V184P): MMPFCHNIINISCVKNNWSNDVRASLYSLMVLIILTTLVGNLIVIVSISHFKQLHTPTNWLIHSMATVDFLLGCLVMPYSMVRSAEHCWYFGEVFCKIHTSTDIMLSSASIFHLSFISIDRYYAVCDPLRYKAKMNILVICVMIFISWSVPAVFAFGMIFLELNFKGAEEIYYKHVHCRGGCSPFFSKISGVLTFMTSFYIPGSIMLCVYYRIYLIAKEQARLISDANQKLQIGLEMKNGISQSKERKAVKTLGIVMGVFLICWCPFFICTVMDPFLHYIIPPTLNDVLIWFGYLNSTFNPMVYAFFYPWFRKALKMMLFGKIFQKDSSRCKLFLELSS

hTA1 = molecular target: T2, hTA1 (Homo sapiens, UniProt Q96RJ0); experiment: GloSensor cAMP accumulation assay, concentration response, wild-type hTA1 in transfected HEK293T cells; type: cell-based; settings: for Dose-response curves for asenapine vs endogenous trace amines: log[Compound], replicate values (N=2);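 on all read-outs here: luminescence read after 30 min compound exposure at room temperature in cells preloaded with D-Luciferin, reflecting Gs-driven cAMP rise, efficacy scaled to the maximal β-PEA response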
T2 construct: expressed in transfected cells; host or cells: HEK293T
T2 sequence (Q96RJ0 1-339): T1 sequence (Q96RJ0 1-339 V184P) with P184V

## NCCc1ccc(Oc2ccc(O)cc2)c(I)c1 [T1AM, 3-iodothyronamine]
hTA1 V184P; M = -8
  cAMP accumulation response, single replicate values (source data, Supplementary Figure 5): -0.9283 (2×) and -1.51 and 5.3642 and 2.908 and 3.861
hTA1 V184P; M = -8.522
  cAMP accumulation response, single replicate values (source data, Supplementary Figure 5): -1.316 and -1.607 and -1.51 and 1.809 and 2.2854 and 1.442
hTA1 V184P; M = -9
  cAMP accumulation response, single replicate values (source data, Supplementary Figure 5): -1.704 (2×) and -1.801 and 1.442 and -0.5735 and 0.4894
hTA1 V184P; M = -9.522
  cAMP accumulation response, single replicate values (source data, Supplementary Figure 5): -1.4132 and -1.801 and -1.607 and 0.3795 and -0.4269 and 0.5994
hTA1 V184P; M = -10
  cAMP accumulation response, single replicate values (source data, Supplementary Figure 5): -1.51 and -1.801 (2×) and 1.149 and -0.207 and 0.01294
hTA1 V184P; M = -10.522
  cAMP accumulation response, single replicate values (source data, Supplementary Figure 5): -1.316 and -1.607 (2×) and -0.2803 and 0.08625 and -1.233
hTA1 V184P; M = -11
  cAMP accumulation response, single replicate values (source data, Supplementary Figure 5): -1.801 and -1.122 and -1.4132 and 0.746 and 0.7093 and 0.1596
hTA1 V184P; M = -11.522
  cAMP accumulation response, single replicate values (source data, Supplementary Figure 5): -1.316 and -1.025 and -1.4132 and 0.636 and 1.039 and -0.3169
hTA1 V184P; M = -12
  cAMP accumulation response, single replicate values (source data, Supplementary Figure 5): -1.801 and -1.122 and -1.219 and -0.4635 and 0.9659 and -0.1337
hTA1 V184P; M = -12.522
  cAMP accumulation response, single replicate values (source data, Supplementary Figure 5): -1.219 and -0.7343 and -1.607 and 0.0496 and -0.3536 and -0.6468
hTA1 V184P; hTA1 V184P mutant minus WT average
  ΔpEC50 values (each mutant value - WT average), Mean: 0.071 and 0.2071
hTA1 V184P; hTA1 V184P mutant, Figure 3B source data, each grid row a separate experiment, 3 replicates
  pEC50 values, Mean: 6.2 and 6.336
hTA1 V184P; hTA1 V184P mutant, β-PEA set to 100, each grid row a separate experiment, 3 replicates
  Emax values, Mean: 49.3182 and 91.2084
hTA1; WT hTA1, average of the two experiments, Figure 2B source data
  pEC50 values, Avg: 6.129
hTA1; WT hTA1, each line an independent experiment, 3 replicates, Figure 2B source data
  pEC50 values, Mean: 6.182 and 6.077
hTA1; WT hTA1, β-PEA = 100, average of the two experiments
  Emax values, Avg: 70.45
hTA1; WT hTA1, β-PEA = 100, each line an independent experiment, 3 replicates
  Emax values, Mean: 81.6192 and 59.2734
hTA1; WT, average of the experiments, β-PEA = 100
  Emax values, Avg: 70.45
hTA1; WT, average of the two experiments
  Emax values, Avg: 70.45
hTA1; WT, mean of each independent experiment (3 replicates), β-PEA = 100
  Emax values, Mean: 81.6192 and 59.2734
hTA1; WT, single experiments (3 replicates each), β-PEA = 100
  Emax values, Mean: 81.6192 and 59.2734
hTA1; M = -5
  Dose-response curves for asenapine vs endogenous trace amines: 80.3892 and 70.8419 and 77.0287 and 53.9778 and 58.2977 and 47.0284
hTA1; M = -5.522
  Dose-response curves for asenapine vs endogenous trace amines: 67.6372 and 58.4905 and 72.8448 and 53.4613 and 47.5449 and 34.1625
hTA1; M = -6
  Dose-response curves for asenapine vs endogenous trace amines: 47.6524 and 43.0457 and 45.9165 and 36.4633 and 32.8477 and 25.2879
hTA1; M = -6.522
  Dose-response curves for asenapine vs endogenous trace amines: 27.5341 and 25.2641 and 26.1988 and 18.1976 and 14.2064 and 10.9195
hTA1; M = -7
  Dose-response curves for asenapine vs endogenous trace amines: 12.6456 and 9.641 and 11.7554 and 4.346 and 3.125 and 2.796
hTA1; M = -7.522
  Dose-response curves for asenapine vs endogenous trace amines: 2.609 and 0.272 and 1.897 and 0.1666 and -0.02121 and -0.8664
hTA1; M = -8
  Dose-response curves for asenapine vs endogenous trace amines: 1.34 and 0.4055 and 0.9619 and 0.2136 and -0.06817 and -0.9603
hTA1; M = -8.522
  Dose-response curves for asenapine vs endogenous trace amines: -0.9075 and -0.6182 and -0.5737 and -1.007 and 0.1197 and -2.04
hTA1; M = -9
  Dose-response curves for asenapine vs endogenous trace amines: -0.9521 and -0.863 and -1.419 and -0.8664 and -0.8195 and -1.618
hTA1; M = -9.522
  Dose-response curves for asenapine vs endogenous trace amines: -1.019 and -2.087 and -1.442 and -1.383 and -0.8195 and -2.228
hTA1; M = -10
  Dose-response curves for asenapine vs endogenous trace amines: -0.863 (2×) and -1.286 and -1.477 and -1.054 and -1.571
hTA1; M = -10.522
  Dose-response curves for asenapine vs endogenous trace amines: -1.531 and -2.287 and -1.464 and -1.571 and -1.336 and -1.618
hTA1; M = -11
  Dose-response curves for asenapine vs endogenous trace amines: -0.1731 and -0.9075 and -0.3734 and -0.5847 and 0.1197 and -1.054
hTA1; M = -11.522
  Dose-response curves for asenapine vs endogenous trace amines: -0.507 and -1.152 and -1.197 and -0.209 and -0.1151 and -1.054
hTA1; M = -12
  Dose-response curves for asenapine vs endogenous trace amines: -0.774 and -1.419 and -1.8645 and -1.336 (2×) and -1.571
hTA1; M = -12.522
  Dose-response curves for asenapine vs endogenous trace amines: -1.019 and -1.798 (2×) and -0.7255 and -1.43 and -2.087
hTA1; wt hTA1, HEK293T, n=3
  pEC50 ± SEM: 6.13 ± 0.04
hTA1; wt hTA1, HEK293T, n=3, read-out: EC50
  EC50: 743 nM
hTA1; wt hTA1, relative to β-PEA
  Emax: 70.5%
